# From patent US20050191668A1, “Methods of using peroxisome proliferator-activated receptor alpha target genes” (priority 2004, published 2005)
# Assays:
# Assay type in all cases: cell-based, human
# Pa9 gene [1] = assay: Pa9 gene expression by real-time RT-PCR in HuH7 hepatocytes; conditions: HuH7 hepatocytes
# Source text: (§1) Human hepatocyte HuH7 cells, which are epithelial cells of liver, were obtained from Japan Health Science Research Resources Bank (Osaka, Japan). Human primary adipocytes, which are connective tissue cells specialized for the synthesis and storage of fat, were obtained from Zen-Bio, Inc (Research Triangle Park, NC). Human primary skeletal muscle cells (SKMC) were obtained from Cambrex Bio Science (Walkersville, Md.). PPARα agonists, Wy14643 (Agatha, et al, 2000, Archives of Biochemistry and Biophysics 380:353-359) and fenofibrates were obtained from Cayman Chemical (Ann Arbor, Mich.) and Sigma (St Louis, Mo.), respectively.
# (§2) Human HuH7 cells were cultured in Dulbecco's Modified Eagle Medium with 10% Fetal Bovine Serum (Gibco, N.Y.). Cells were treated with charcoal-stripped, delipidated calf serum (5%) (Sigma, St Louis, Mo.) for about 4-18 hours. Then, cells were treated with different concentrations of PPARα agonist (Wy14643 or fenofibrates) for about 20-24 h. Human SKM cells were cultured in Skeletal Muscle Growth Medium (Cambrex Bio Science, Walkersville, Md.), and were treated with different concentrations of PPARα agonist (Wy14643 or fenofibrates) for about 18-20 hours. Human primary adipocytes were cultured in Preadipocyte Medium, (Cat #PM—1, Zen-Bio, Inc., Research Triangle Park, NC), and were treated with different concentrations of PPARα agonist (Wy14643 or fenofibrates) for about 18-20 hours.
# (§3) Total RNA was purified from cultured cells following the protocol provided by the manufacturer (Trizon method, Invitrogen Inc. Ca). The polymerase chain reaction (PCR) primers and fluorescent probes (TagMan probes) for Pa9, Pa13, and Pa21 were designed from GenBank sequences of accession numbers W30988, AB000584, and NM_080725, respectively. The primers and probes were designed using the software PrimerDesign (Applied Biosystems, Foster City, Calif.). The PCR primers for Pa9 were SEQ ID NO: 7, (5-[…]) and SEQ ID NO: 8 (5-[…]). […] The PCR primers for Pa13 were SEQ ID NO: 10 (5-[…], T) and SEQ ID NO: 11 (5-[…] T). […] The PCR primers for Pa21 were SEQ ID NO: 13 (5-[…] C) and SEQ ID NO: 14 (5-[…]). […] All primers and probes were synthesized by Keystone Labs (Camarillo, Calif.).
# (§4) Reverse transcription (RT) and PCR were conducted in one step using “One-Step RT-PCR Master Mix Reagent” kit (Applied Biosystems, Foster City, Calif.) in ABI PRISM 7700 Sequence Detection System (Applied Biosystems). Each reaction was performed in a total volume of 25 μl containing 40 ng of total RNA. The reaction condition was: 48° C. for 30 minutes, 60° C. for 30 minutes, 94° C. for 5 minutes, followed by 40 cycles of 94° C. for 20 seconds and 60° C. for 1 minute. The primers for 18S ribosomal RNA were developed and provided by Applied Biosystems. The measurement of human 18S ribosomal RNA was used as an internal control for normalization of measuring and loading errors. PCR data were collected by Ct value (the cycle number at which logarithmic PCR plots cross a calculated threshold line) according to the manufacturer's guidelines and the value was used to determine the Δ^Ct (Ct of the target gene minus the Ct of 18S ribosomal RNA controls). Relative mRNA level was calculated using the equation 2^−ΔΔCt as described previously (Heid et al., 1996, Genome Res. 6:986-994).
# Pa13 gene [2] = assay: Pa13 gene expression by real-time RT-PCR in HuH7 hepatocytes
# Source text: as §1, §2, §3, §4
# Pa21 gene [3] = assay: Pa21 gene expression by real-time RT-PCR in HuH7 hepatocytes
# Source text: as §1, §2, §3, §4
# Pa9 gene [4] = assay: Pa9 gene expression by real-time RT-PCR in primary skeletal muscle cells; conditions: about 18-20 hours, vehicle control = 100
# Source text: as §1, §2, §3, §4
# The nucleotide sequence of the human FDRG gene (AX278133) is provided in SEQ ID NO: 1 and the sequence alignment between W30988 and FDRG gene is shown in FIG. 1. […] Quantitative real-time RT-PCR was performed to test whether gene expression of the human FDRG gene is regulated by PPARα.
# Pa13 gene [5] = assay: Pa13 gene expression by real-time RT-PCR in primary skeletal muscle cells; conditions: about 18-20 hours, vehicle control = 100
# Source text: as §1, §2, §3, §4
# Pa21 gene [6] = assay: Pa21 gene expression by real-time RT-PCR in primary skeletal muscle cells; conditions: about 18-20 hours, vehicle control = 100
# Source text: as §1, §2, §3, §4
# Pa9 gene [7] = assay: Pa9 gene expression by real-time RT-PCR in primary adipocytes; conditions: 50 uM, about 18-20 hours, vehicle control = 100
# Source text: as §1, §2
# Total RNA was purified from cultured cells following the protocol provided by the manufacturer (Trizon method, Invitrogen Inc. Ca). The polymerase chain reaction (PCR) primers and fluorescent probes (TagMan probes) for Pa9, Pa13, and Pa21 were designed from GenBank sequences of accession numbers W30988, AB000584, and NM_080725, respectively. The primers and probes were designed using the software PrimerDesign (Applied Biosystems, Foster City, Calif.). The PCR primers for Pa9 were SEQ ID NO: 7, (5-[…]) and SEQ ID NO: 8 (5-[…]). […] The PCR primers for Pa13 were SEQ ID NO: 10 (5-[…], T) and SEQ ID NO: 11 (5-[…] T). […] The PCR primers for Pa21 were SEQ ID NO: 13 (5-[…] C) and SEQ ID NO: 14 (5-[…]). […]
# Reverse transcription (RT) and PCR were conducted in one step using “One-Step RT-PCR Master Mix Reagent” kit (Applied Biosystems, Foster City, Calif.) in ABI PRISM 7700 Sequence Detection System (Applied Biosystems). […] PCR data were collected by Ct value (the cycle number at which logarithmic PCR plots cross a calculated threshold line) according to the manufacturer's guidelines and the value was used to determine the Δ^Ct (Ct of the target gene minus the Ct of 18S ribosomal RNA controls). Relative mRNA level was calculated using the equation 2^−ΔΔCt as described previously (Heid et al., 1996, Genome Res. 6:986-994).
# Pa13 gene [8] = assay: Pa13 gene expression by real-time RT-PCR in primary adipocytes; conditions: about 18-20 hours, vehicle control = 100
# Source text: as §1, §2, §3, §4
# Pa21 gene [9] = assay: Pa21 gene expression by real-time RT-PCR in primary adipocytes; conditions: about 18-20 hours, vehicle control = 100
# Source text: as §1, §2, §3, §4
# [10] = 1 μM, vehicle control = 100 (Table 4)
# [11] = 3 uM, about 20-24 h, vehicle control = 100
# [12] = 10 uM, about 20-24 h, vehicle control = 100
# [13] = 30 uM, about 20-24 h, vehicle control = 100
# [14] = 100 uM, about 20-24 h, vehicle control = 100
# [15] = 300 uM, about 20-24 h, vehicle control = 100
structure (smiles),measurement,setting,value
CN(CCOc1ccc(CC2SC(=O)NC2=O)cc1)c1ccccn1 (centres unmarked) [Rosiglitazone],"Pa9 (W38098) gene expression, Percentage ± SE (%)",Pa9 gene [1]; [10],147 ± 31.2%
same,"Pa13 (N26311) gene expression, Percentage ± SE (%)",Pa13 gene [2]; [10],217 ± 20.2%
same,"Pa21 (H4960) gene expression, Percentage ± SE (%)",Pa21 gene [3]; [10],97 ± 17.5%
CC(C)OC(=O)C(C)(C)Oc1ccc(C(=O)c2ccc(Cl)cc2)cc1 [Fenofibrate],"Pa9 (W38098) gene expression, Percentage ± SE (%)",Pa9 gene [1]; [11],110 ± 12.7%
same,"Pa9 (W38098) gene expression, Percentage ± SE (%)",Pa9 gene [1]; [12],90 ± 23%
same,"Pa9 (W38098) gene expression, Percentage ± SE (%)",Pa9 gene [1]; [13],80 ± 2%
same,"Pa9 (W38098) gene expression, Percentage ± SE (%)",Pa9 gene [1]; [14],140 ± 37.1%
same,"Pa9 (W38098) gene expression, Percentage ± SE (%)",Pa9 gene [1]; [15],200 ± 11.5%
same,"Pa13 (N26311) gene expression, Percentage ± SE (%)",Pa13 gene [2]; [11],180 ± 43.9%
same,"Pa13 (N26311) gene expression, Percentage ± SE (%)",Pa13 gene [2]; [12],160 ± 55%
same,"Pa13 (N26311) gene expression, Percentage ± SE (%)",Pa13 gene [2]; [13],250 ± 4.8%
same,"Pa13 (N26311) gene expression, Percentage ± SE (%)",Pa13 gene [2]; [14],750 ± 10.8%
same,"Pa13 (N26311) gene expression, Percentage ± SE (%)",Pa13 gene [2]; [15],710 ± 7.3%
same,"Pa21 (H4960) gene expression, Percentage ± SE (%)",Pa21 gene [3]; [11],63.6 ± 17.3%
same,"Pa21 (H4960) gene expression, Percentage ± SE (%)",Pa21 gene [3]; [12],227.3 ± 54%
same,"Pa21 (H4960) gene expression, Percentage ± SE (%)",Pa21 gene [3]; [13],209.1 ± 20.4%
same,"Pa21 (H4960) gene expression, Percentage ± SE (%)",Pa21 gene [3]; [14],300 ± 20.6%
same,"Pa21 (H4960) gene expression, Percentage ± SE (%)",Pa21 gene [3]; [15],336.4 ± 24.3%
same,"Pa9 (W38098) gene expression, Percentage ± SE (%)",Pa9 gene [4]; 3 uM,120 ± 34.2%
same,"Pa9 (W38098) gene expression, Percentage ± SE (%)",Pa9 gene [4]; 10 uM,230 ± 15.7%
same,"Pa9 (W38098) gene expression, Percentage ± SE (%)",Pa9 gene [4]; 30 uM,340 ± 7.4%
same,"Pa9 (W38098) gene expression, Percentage ± SE (%)",Pa9 gene [4]; 100 uM,350 ± 19.7%
same,"Pa9 (W38098) gene expression, Percentage ± SE (%)",Pa9 gene [4]; 300 uM,550 ± 14%
same,"Pa13 (N26311) gene expression, Percentage ± SE (%)",Pa13 gene [5]; 3 uM,72.7 ± 30.9%
same,"Pa13 (N26311) gene expression, Percentage ± SE (%)",Pa13 gene [5]; 10 uM,63.6 ± 11.8%
same,"Pa13 (N26311) gene expression, Percentage ± SE (%)",Pa13 gene [5]; 30 uM,181.8 ± 3%
same,"Pa13 (N26311) gene expression, Percentage ± SE (%)",Pa13 gene [5]; 100 uM,218.2 ± 2.9%
same,"Pa13 (N26311) gene expression, Percentage ± SE (%)",Pa13 gene [5]; 300 uM,309.1 ± 7.4%
same,"Pa21 (H4960) gene expression, Percentage ± SE (%)",Pa21 gene [6]; 3 uM,110 ± 14.5%
same,"Pa21 (H4960) gene expression, Percentage ± SE (%)",Pa21 gene [6]; 10 uM,290 ± 1.4%
same,"Pa21 (H4960) gene expression, Percentage ± SE (%)",Pa21 gene [6]; 30 uM,280 ± 52.5%
same,"Pa9 (W38098) gene expression, Percentage ± SE (%)",Pa9 gene [7],127 ± 1.5%
same,"Pa13 (N26311) gene expression, Percentage ± SE (%)",Pa13 gene [8]; 10 uM,70 ± 27.1%
same,"Pa13 (N26311) gene expression, Percentage ± SE (%)",Pa13 gene [8]; 50 uM,45 ± 13.3%
same,"Pa13 (N26311) gene expression, Percentage ± SE (%)",Pa13 gene [8]; 250 uM,206 ± 34.4%
same,"Pa21 (H4960) gene expression, Percentage ± SE (%)",Pa21 gene [9]; 10 uM,63 ± 5.6%
same,"Pa21 (H4960) gene expression, Percentage ± SE (%)",Pa21 gene [9]; 50 uM,109 ± 4.5%
same,"Pa21 (H4960) gene expression, Percentage ± SE (%)",Pa21 gene [9]; 250 uM,121 ± 17.3%
